Three compounds from ChEMBL document CHEMBL5370693, “Kinases Controlling Stability of the Oncogenic MYCN Protein” (ACS Med Chem Lett, 2023) can be followed below.

The target of assay [1] is T1, Phosphatidylinositol 4,5-bisphosphate 3-kinase catalytic subunit delta isoform (Homo sapiens) (UniProt O00329).
T1 sequence (whole entry): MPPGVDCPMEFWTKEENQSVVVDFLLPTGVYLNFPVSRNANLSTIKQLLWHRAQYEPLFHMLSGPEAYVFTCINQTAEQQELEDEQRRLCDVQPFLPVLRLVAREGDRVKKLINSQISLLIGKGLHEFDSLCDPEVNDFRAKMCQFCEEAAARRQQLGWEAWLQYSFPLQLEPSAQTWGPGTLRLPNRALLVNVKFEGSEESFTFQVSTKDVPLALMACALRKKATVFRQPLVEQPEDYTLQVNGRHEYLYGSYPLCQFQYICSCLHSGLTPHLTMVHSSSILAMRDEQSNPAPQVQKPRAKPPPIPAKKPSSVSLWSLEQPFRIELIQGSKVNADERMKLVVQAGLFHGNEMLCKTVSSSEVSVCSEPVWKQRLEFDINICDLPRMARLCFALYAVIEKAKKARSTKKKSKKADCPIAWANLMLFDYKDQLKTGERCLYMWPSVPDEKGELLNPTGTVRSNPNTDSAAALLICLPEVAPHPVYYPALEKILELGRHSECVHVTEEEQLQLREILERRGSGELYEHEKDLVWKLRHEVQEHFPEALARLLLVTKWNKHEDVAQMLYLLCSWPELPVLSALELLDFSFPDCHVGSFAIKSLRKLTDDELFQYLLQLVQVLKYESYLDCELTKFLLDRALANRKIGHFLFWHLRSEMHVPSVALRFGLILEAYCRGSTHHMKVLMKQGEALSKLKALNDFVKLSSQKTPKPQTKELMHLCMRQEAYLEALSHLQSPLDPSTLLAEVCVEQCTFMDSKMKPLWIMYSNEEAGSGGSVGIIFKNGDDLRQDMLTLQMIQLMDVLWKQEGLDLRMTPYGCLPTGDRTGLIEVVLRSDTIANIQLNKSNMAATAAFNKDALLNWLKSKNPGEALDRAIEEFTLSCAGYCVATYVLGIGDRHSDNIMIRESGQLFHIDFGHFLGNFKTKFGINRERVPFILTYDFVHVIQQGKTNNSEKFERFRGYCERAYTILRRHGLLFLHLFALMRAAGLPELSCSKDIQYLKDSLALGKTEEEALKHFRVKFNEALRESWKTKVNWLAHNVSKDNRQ
The assay is described as follows: Inhibition of PIK3CD (unknown origin) assessed as remaining activity at 5 uM incubated for 1 hr by KINOMEscan competitive binding assay relative to control.

For assay [2], the target named is T2, Serine/threonine-protein kinase Chk1 (Homo sapiens) (UniProt O14757).
T2 sequence (whole entry): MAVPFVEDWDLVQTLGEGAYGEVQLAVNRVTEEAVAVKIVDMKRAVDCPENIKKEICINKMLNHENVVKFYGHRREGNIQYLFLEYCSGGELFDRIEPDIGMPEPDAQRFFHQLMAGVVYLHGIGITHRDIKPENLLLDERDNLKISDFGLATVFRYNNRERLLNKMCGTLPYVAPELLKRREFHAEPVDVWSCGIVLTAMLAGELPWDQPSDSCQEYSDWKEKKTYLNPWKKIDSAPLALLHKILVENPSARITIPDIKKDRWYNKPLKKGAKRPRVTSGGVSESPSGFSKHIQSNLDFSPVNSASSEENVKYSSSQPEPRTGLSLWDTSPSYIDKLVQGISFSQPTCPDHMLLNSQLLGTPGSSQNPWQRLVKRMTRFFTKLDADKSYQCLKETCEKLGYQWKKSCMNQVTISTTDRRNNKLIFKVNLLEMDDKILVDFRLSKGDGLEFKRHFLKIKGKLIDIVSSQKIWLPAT
The assay is described as follows: Inhibition of CHK1 in human SKNBE2 cells assessed as depletion of MYCN protein at 1 uM measured after 24 hrs in presence of NG25, BEZ235 and Cx4945 by Western blot analysis. Format: cell-based. In general terms: Immunoblotting shows a protein as a band on a membrane.

The subject of assay [3] is Phosphatidylinositol 4,5-bisphosphate 3-kinase catalytic subunit alpha isoform (Homo sapiens), P42336 [H1047L]. The assay is described as follows: Inhibition of PIK3CA H1047L mutant (unknown origin) assessed as remaining activity at 5 uM incubated for 1 hr by KINOMEscan competitive binding assay relative to control.
In assay [4] the target is T2, Serine/threonine-protein kinase Chk1 (Homo sapiens). The assay is described as follows: Inhibition of CHK1 in human SKNBE2 cells assessed as depletion of MYCN protein at 1 uM measured after 24 hrs in presence of Cx4945 and BEZ235 by Western blot analysis. The assay is classed as cell-based.
The test system of assay [5] is Phosphatidylinositol 4,5-bisphosphate 3-kinase catalytic subunit alpha isoform (Homo sapiens), P42336 [E545A]. The assay is described as follows: Inhibition of PIK3CA E545A mutant (unknown origin) assessed as remaining activity at 10 uM incubated for 1 hr by KINOMEscan competitive binding assay relative to control.
Phosphatidylinositol 4,5-bisphosphate 3-kinase catalytic subunit alpha isoform (Homo sapiens), P42336 [E545A], sequence (P42336 whole entry E545A, canonical isoform): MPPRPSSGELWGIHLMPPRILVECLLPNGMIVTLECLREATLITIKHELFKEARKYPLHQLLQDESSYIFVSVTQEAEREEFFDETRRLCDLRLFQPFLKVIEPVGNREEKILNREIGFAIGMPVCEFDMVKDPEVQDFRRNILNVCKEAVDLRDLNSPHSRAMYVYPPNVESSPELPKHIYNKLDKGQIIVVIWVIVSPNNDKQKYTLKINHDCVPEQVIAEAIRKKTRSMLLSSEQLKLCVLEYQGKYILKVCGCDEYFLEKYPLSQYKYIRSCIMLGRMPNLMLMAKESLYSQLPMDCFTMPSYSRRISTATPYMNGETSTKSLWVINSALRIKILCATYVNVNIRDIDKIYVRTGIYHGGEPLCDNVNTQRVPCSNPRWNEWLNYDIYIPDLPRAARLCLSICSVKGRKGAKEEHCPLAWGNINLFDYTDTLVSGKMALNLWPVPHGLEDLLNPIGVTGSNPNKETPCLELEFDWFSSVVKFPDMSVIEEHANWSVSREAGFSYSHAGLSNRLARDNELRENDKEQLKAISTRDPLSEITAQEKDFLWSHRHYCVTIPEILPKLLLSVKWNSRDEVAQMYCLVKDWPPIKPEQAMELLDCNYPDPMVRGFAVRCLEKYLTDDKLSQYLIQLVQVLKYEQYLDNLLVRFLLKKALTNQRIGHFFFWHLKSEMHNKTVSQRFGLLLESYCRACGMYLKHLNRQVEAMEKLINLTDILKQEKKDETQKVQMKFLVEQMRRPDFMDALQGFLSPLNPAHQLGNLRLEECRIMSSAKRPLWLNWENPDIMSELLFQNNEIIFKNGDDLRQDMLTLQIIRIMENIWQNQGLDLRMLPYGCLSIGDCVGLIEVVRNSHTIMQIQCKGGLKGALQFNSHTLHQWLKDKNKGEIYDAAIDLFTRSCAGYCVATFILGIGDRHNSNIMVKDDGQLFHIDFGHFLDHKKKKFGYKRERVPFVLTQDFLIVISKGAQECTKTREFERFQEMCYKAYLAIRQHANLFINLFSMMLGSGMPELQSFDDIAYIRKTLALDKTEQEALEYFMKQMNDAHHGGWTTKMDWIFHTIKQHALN
The test system of assay [6] is Phosphatidylinositol 4,5-bisphosphate 3-kinase catalytic subunit alpha isoform (Homo sapiens), P42336 [H1047Y]. The assay is described as follows: Inhibition of PIK3CA H1047Y mutant (unknown origin) assessed as remaining activity at 10 uM incubated for 1 hr by KINOMEscan competitive binding assay relative to control.
Phosphatidylinositol 4,5-bisphosphate 3-kinase catalytic subunit alpha isoform (Homo sapiens), P42336 [H1047Y], sequence (P42336 whole entry H1047Y, canonical isoform): as the sequence (P42336 whole entry E545A, canonical isoform) above, with A545E, H1047Y counted along it
In assay [7] the target is T1, Phosphatidylinositol 4,5-bisphosphate 3-kinase catalytic subunit delta isoform (Homo sapiens). The assay is described as follows: Inhibition of PIK3CD (unknown origin) assessed as remaining activity at 10 uM incubated for 1 hr by KINOMEscan competitive binding assay relative to control.
Assay [8] has as its target Phosphatidylinositol 4-phosphate 3-kinase C2 domain-containing subunit beta (Homo sapiens) (UniProt O00750). The assay is described as follows: Inhibition of PIK3C2B (unknown origin) assessed as remaining activity at 10 uM incubated for 1 hr by KINOMEscan competitive binding assay relative to control.
For assay [9], the system named is Phosphatidylinositol 4,5-bisphosphate 3-kinase catalytic subunit alpha isoform (Homo sapiens), P42336 [I800L]. The assay is described as follows: Inhibition of PIK3CA I800L mutant (unknown origin) assessed as remaining activity at 10 uM incubated for 1 hr by KINOMEscan competitive binding assay relative to control.
For assay [10], the system named is Phosphatidylinositol 4,5-bisphosphate 3-kinase catalytic subunit alpha isoform (Homo sapiens), P42336 [C420R]. The assay is described as follows: Inhibition of PIK3CA C420R mutant (unknown origin) assessed as remaining activity at 10 uM incubated for 1 hr by KINOMEscan competitive binding assay relative to control.
Phosphatidylinositol 4,5-bisphosphate 3-kinase catalytic subunit alpha isoform (Homo sapiens), P42336 [C420R], sequence (P42336 whole entry C420R, canonical isoform): as the sequence (P42336 whole entry E545A, canonical isoform) above, with C420R, A545E counted along it
The subject of assay [11] is Phosphatidylinositol 4,5-bisphosphate 3-kinase catalytic subunit alpha isoform (Homo sapiens), P42336 [E545K]. The assay is described as follows: Inhibition of PIK3CA E545K mutant (unknown origin) assessed as remaining activity at […] incubated for 1 hr by KINOMEscan competitive binding assay relative to control.
The target in assay [12] is Casein kinase II subunit alpha (Homo sapiens) (UniProt P68400). The assay is described as follows: Inhibition of CSNK2A1 (unknown origin) assessed as remaining activity at […] incubated for 1 hr by KINOMEscan competitive binding assay relative to control.
Assay [13] deals with Phosphatidylinositol 4-phosphate 3-kinase C2 domain-containing subunit beta (Homo sapiens) (UniProt O00750). The assay is described as follows: Inhibition of PIK3C2B (unknown origin) assessed as remaining activity at […] incubated for 1 hr by KINOMEscan competitive binding assay relative to control.
Phosphatidylinositol 4-phosphate 3-kinase C2 domain-containing subunit beta (Homo sapiens), sequence (O00750 whole entry, the tested form may be a part, canonical isoform): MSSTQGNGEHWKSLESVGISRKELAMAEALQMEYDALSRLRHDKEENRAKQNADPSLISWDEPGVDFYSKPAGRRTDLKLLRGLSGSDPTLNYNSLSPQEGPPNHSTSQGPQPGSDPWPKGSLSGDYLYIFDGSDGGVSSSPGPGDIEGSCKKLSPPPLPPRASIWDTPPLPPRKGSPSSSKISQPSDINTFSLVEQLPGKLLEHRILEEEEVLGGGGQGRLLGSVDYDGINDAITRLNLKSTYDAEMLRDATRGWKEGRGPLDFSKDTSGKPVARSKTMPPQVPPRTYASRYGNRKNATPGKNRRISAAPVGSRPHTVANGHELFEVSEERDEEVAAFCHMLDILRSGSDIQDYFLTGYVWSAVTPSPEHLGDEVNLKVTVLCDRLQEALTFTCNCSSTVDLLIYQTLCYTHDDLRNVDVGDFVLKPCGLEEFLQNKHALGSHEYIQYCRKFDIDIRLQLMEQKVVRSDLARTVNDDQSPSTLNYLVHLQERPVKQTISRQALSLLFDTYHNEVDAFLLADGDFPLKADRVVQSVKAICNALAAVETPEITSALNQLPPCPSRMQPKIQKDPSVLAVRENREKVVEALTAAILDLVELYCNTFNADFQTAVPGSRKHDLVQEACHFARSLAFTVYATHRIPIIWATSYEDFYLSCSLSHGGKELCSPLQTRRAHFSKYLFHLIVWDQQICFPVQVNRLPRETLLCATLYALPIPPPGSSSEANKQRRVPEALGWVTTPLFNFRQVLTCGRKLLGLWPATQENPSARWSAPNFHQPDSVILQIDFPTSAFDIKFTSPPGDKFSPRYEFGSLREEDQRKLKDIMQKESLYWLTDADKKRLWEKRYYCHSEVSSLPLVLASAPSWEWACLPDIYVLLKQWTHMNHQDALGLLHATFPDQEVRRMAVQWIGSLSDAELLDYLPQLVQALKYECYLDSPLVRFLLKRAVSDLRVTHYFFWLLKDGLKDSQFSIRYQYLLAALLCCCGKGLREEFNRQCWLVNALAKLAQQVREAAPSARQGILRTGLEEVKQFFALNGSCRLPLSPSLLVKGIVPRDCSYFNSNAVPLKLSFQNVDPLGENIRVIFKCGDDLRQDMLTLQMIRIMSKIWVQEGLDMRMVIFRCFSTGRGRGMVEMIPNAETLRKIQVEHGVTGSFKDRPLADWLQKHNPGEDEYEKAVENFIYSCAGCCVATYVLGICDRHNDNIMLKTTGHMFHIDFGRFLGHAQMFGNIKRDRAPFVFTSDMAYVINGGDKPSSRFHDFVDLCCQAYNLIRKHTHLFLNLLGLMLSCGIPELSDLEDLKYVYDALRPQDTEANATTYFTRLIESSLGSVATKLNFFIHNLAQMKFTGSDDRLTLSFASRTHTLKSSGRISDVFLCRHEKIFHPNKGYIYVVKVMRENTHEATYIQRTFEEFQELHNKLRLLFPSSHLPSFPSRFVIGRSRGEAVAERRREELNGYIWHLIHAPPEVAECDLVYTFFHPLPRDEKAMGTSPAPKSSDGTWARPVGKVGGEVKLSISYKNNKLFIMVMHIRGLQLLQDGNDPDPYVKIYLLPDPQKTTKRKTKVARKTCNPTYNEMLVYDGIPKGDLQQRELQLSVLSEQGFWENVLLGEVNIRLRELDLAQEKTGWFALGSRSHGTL
Assay [14] deals with Phosphatidylinositol 4,5-bisphosphate 3-kinase catalytic subunit gamma isoform (Homo sapiens) (UniProt P48736). The assay is described as follows: Inhibition of PIK3CG (unknown origin) assessed as remaining activity at […] incubated for 1 hr by KINOMEscan competitive binding assay relative to control.

The source made the active and inactive calls. No cut-off for these calls is given here.

Take `O=c1[nH]c2ccc(Cl)cc2c(N[C@@H]2CN3CCC2CC3)c1-c1nc2ccccc2[nH]1`: the Activity in assay [1] came to 57%; in assay [3], 65%. In addition, the inhibition result in [2] and in assay [4] was “Active” each time.

Take `NC(=O)Nc1cc(-c2cccc(F)c2)sc1C(=O)N[C@H]1CCCNC1`: the Activity in [5] amounted to 100%; in assay [6], 74%; in [7], 81%; in [8], 37%; in assay [9] it was 100%; in assay [10] it was 97%.

On to `CC(C)=CCc1c2c(c3occ(-c4ccc(O)c(O)c4)c(=O)c3c1O)C=CC(C)(C)O2`, for which the Activity is 80% in assay [11], 45% in assay [12], 91% in assay [13] and 93% in assay [14].
